PubChem BioAssay (NCI)
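The compound was tested at five concentrations on cells cultured in 96-well plates, with a 48-hour exposure period. The concentration for full growth arrest is given as TGI.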

Experiments:
Experiment in all cases: NCI-60 cell line screen, 48 h
[1] = test system: UACC-62 melanoma
[2] = test system: NCI-H23 lung
[3] = test system: UO-31 renal
[4] = test system: XF 498 CNS
[5] = test system: TK-10 renal
[6] = test system: LOX IMVI melanoma
[7] = test system: SNB-19 CNS
[8] = test system: MALME-3M melanoma
[9] = test system: SF-268 CNS
[10] = test system: A549 NSCLC
[11] = test system: U251 CNS
[12] = test system: SW-620 colon
[13] = test system: HT29 colon
[14] = test system: M19-MEL melanoma
[15] = test system: UACC-257 melanoma
[16] = test system: COLO 205 colon
[17] = test system: SK-MEL-2 melanoma
[18] = test system: CCRF-CEM leukemia
[19] = test system: NCI-H460 lung
[20] = test system: EKVX NSCLC
[21] = test system: IGROV1 ovarian
[22] = test system: KM20L2 colon
[23] = test system: HL-60(TB) leukemia
[24] = test system: DLD-1 colon
[25] = test system: NCI-H522 lung
[26] = test system: DMS 273 small cell lung
[27] = test system: A498 renal
[28] = test system: K-562 leukemia
[29] = test system: SF-539 CNS
[30] = test system: HCC-2998 colon
[31] = test system: SNB-78 CNS
[32] = test system: RXF 393 renal
[33] = test system: SNB-75 CNS
[34] = test system: NCI-H226 lung
[35] = test system: HCT-15 colon
[36] = test system: SF-295 CNS
[37] = test system: SK-MEL-28 melanoma
[38] = test system: HOP-62 NSCLC
[39] = test system: OVCAR-4 ovarian
[40] = test system: KM12 colon
[41] = test system: OVCAR-8 ovarian
[42] = test system: HOP-18 NSCLC
[43] = test system: ACHN renal
[44] = test system: 786-0 renal
[45] = test system: SN12C renal
[46] = test system: SK-OV-3 ovarian
[47] = test system: M14 melanoma
[48] = test system: HCT-116 colon
[49] = test system: SR leukemia
[50] = test system: OVCAR-3 ovarian
[51] = test system: LXFL 529 NSCLC
[52] = test system: RPMI-8226 leukemia
[53] = test system: MOLT-4 leukemia
[54] = test system: HOP-92 NSCLC
[55] = test system: DMS 114 small cell lung
[56] = test system: SK-MEL-5 melanoma
[57] = test system: RXF-631 renal
[58] = test system: OVCAR-5 ovarian
[59] = test system: CAKI-1 renal

Measured: TGI

c1ccc2c(c1)nnn2CNc1ccc(N2CCOCC2)cc1
not listed: [56] | [57] | [58] | [59]
> 100 µM: all other assays above

S=P(c1ccccc1)(c1ccccc1)C1(C2(P(=S)(c3ccccc3)c3ccccc3)CC2)CC1
not listed: [8] | [15] | [23] | [27] | [42] | [46] | [50] | [52] | [54] | [59]
> 100 µM: all other assays above

N#CC(C(=O)CCC(=O)Nc1ccc(Cl)cc1)c1ccccc1Cl (configuration not stated)
not listed: [6] | [13] | [30] | [32] | [38] | [42] | [49]
> 100 µM: all other assays above

C[Si](C)(C)/C=C\CCCN1C(=O)CCC1=O
not listed: [24] | [26] | [32] | [34] | [38] | [39] | [42] | [59]
> 100 µM: all other assays above
